Test results reported in patent US20040197834A1, “Method to increase expression of pgd2 receptors and assays for identifying modulators of prostaglandin d2 receptors” (priority 2001, published 2004).
“Also recorded” adds a separate entry of the source.

Legend:
[1] = test system: PGD2 receptors (CRTH2 and DP) on HL-60 membranes; experiment: [3H]PGD2 radioligand binding assay on HL-60 cell membranes; conditions: for differentiation-induced increase in PGD2 binding competed away: butyric acid differentiated HL-60, Example 3; for tritiated PGD2 binding on membranes competed away: membranes from butyric acid-differentiated HL-60 cells, 1 uM unlabeled competitor, FIG. 2; for binding of labeled PGD2 to membranes: membranes from undifferentiated HL-60 cells
Method: (§1) Membranes were isolated from butyric acid-differentiated HL-60 or undifferentiated AML14.3D10 and used in the PGD2 binding assay in the presence or absence of various 1 uM of non-labeled receptor agonists described here below:
(§2) Specific binding of radioactive PGD2 to the membrane was measured and compared to the value obtained in the absence of competitor (ctrl=100% maximum binding).
(§3) HL-60 or AML14.3D10 cells are collected by centrifugation for 6 min at 300 g at 4° C., washed with PBS, centrifuged as before and suspended in 10 mM HEPES/KOH pH 7.4, 1 mM EDTA. The cells are disrupted by nitrogen cavitation (800 psi for 30 min. on ice) in the presence of protease inhibitors (2 mM AEBSF, 10 μM E-64, 100 μM leupeptin and 0.05 mg/ml pepstatin). Cell membrane is isolated by differential centrifugation at 4° C., first at 1000 g for 10 min then 160 000 g for 30 min. After centrifugation the pellet comprising the cell membrane is suspended in 10 mM HEPES/KOH pH 7.4, 1 mM EDTA, pH 7.4 buffer using Dounce homogenization.
(§4) For these assays, specific receptor binding is defined as total associated radioactivity minus the radioactivity measured in the presence of an excess of unlabeled competing ligand. Where possible, more than one competing ligand is used to define residual nonspecific binding. Ligand binding assays are performed using whole cells or cell membranes derived therefrom.
(§5) Radioligand binding assays are performed in 10 mM HEPES/KOH pH 7.4, 1 mM EDTA containing 10 mM MnCl2 and 0.8 nM [^3H]PGD2, in a final volume of 0.2 ml. The reaction is initiated by the addition of 250 μg of membrane protein, prepared as described above. Ligands in dimethylsulfoxide which is kept constant at 1% (v/v) of the final incubation volume are added. Non-specific binding is determined in the presence of 10 μM PGD2. Incubation is conducted for 60 min. at room temperature and is terminated by rapid filtration through GF/C filters prewetted in cold assay incubation buffer (no EDTA) using a Brandel™ harvester. The filter is then washed with 4 ml of the same buffer and residual radioligand bound to the filter is determined by liquid scintillation counting following equilibration in 5 ml Ultima Gold™ (Packard).

[2] = test system: PGD2 receptors (CRTH2 and DP) on AML14.3D10 membranes; experiment: [3H]PGD2 radioligand binding assay on AML14.3D10 cell membranes; conditions: for differentiation-induced increase in PGD2 binding competed away: butyric acid differentiated AML14.3D10, Example 3; for tritiated PGD2 binding on membranes competed away: membranes from nondifferentiated or differentiated AML14.3D10, 1 uM unlabeled competitor, FIG. 2; for binding of labeled PGD2 to membranes: membranes from undifferentiated AML14.3D10 cells
Method: as §1, §2, §3, §4, §5

HL-60 cells = experiment: Butyric acid induced differentiation of HL-60 cells, read out as PGD2 binding to membranes; type: cell-based; conditions: 0.4 mM butyric acid for 7 days
Method: (§6) For example, referring to FIG. 1, shown therein are the results of a binding assay, specifically the binding of radioactive PGD2 to membranes. The assay measures the amount of labeled […] bound to cell membranes derived from the herein disclosed cell lines. Briefly, AML14.3D10 and […] cell lines are incubated in the absence and/or presence of […] of butyric acid for 7 days. Membranes were thereafter isolated from the cells and used in aforementioned PGD2 binding assays.
(§7) On the first day of the experiment cells are split at 2×10^5 cells/ml and supplemented with 0.4 mM butyric acid. On the fourth day the cells are diluted to 2×10^5 cells/ml and the concentration of butyric acid is adjusted to 0.4 mM. The cells are harvested on the seventh day.
(§8) HL-60 or AML14.3D10 cells are collected by centrifugation for 6 min at 300 g at 4° C., washed with PBS, centrifuged as before and suspended in 10 mM HEPES/KOH pH 7.4, 1 mM EDTA. […]
(§9) Radioligand binding assays are performed in 10 mM HEPES/KOH pH 7.4, 1 mM EDTA containing 10 mM MnCl2 and 0.8 nM [^3H]PGD2, in a final volume of 0.2 ml. […] Non-specific binding is determined in the presence of 10 μM PGD2. […] The filter is then washed with 4 ml of the same buffer and residual radioligand bound to the filter is determined by liquid scintillation counting following equilibration in 5 ml Ultima Gold™ (Packard).

AML14.3D10 cells = experiment: Butyric acid induced differentiation of AML14.3D10 cells, read out as PGD2 binding to membranes; type: cell-based; conditions: 0.4 mM butyric acid for 7 days
Method: as §6, §7, §8, §9

## O=C(O)CCCCCCC1C(=O)NC(=O)N1CCC(O)C1CCCCC1 (centres unmarked) [BW245C]
[1]
  differentiation-induced increase in PGD2 binding competed away: about 10%
  tritiated PGD2 binding on membranes competed away: about 10%
[2]
  differentiation-induced increase in PGD2 binding competed away: about 10%
  tritiated PGD2 binding on membranes competed away: about 10%

## CCCCCC(=O)CCC1C(=O)CC(O)C1C/C=C\CCCC(=O)O (centres unmarked) [DK-PGD2, 13,14-dihydro-15-keto-PGD2]
[1]
  differentiation-induced increase in PGD2 binding competed away: About 90%
  tritiated PGD2 binding on membranes competed away: about 90%
[2]
  differentiation-induced increase in PGD2 binding competed away: About 90%
  tritiated PGD2 binding on membranes competed away: about 90%

## CCCCC[C@H](O)/C=C/[C@H]1C(=O)C[C@H](O)[C@@H]1C/C=C\CCCC(=O)O [PGD2, Prostaglandin D2]
[1]
  binding of labeled PGD2 to membranes: minimal amount of PGD2 binding
[1]; listed as 3HPGD2
  binding of labeled PGD2 to membranes: does not bind
[2]
  binding of labeled PGD2 to membranes: appreciable level of PGD2 binding
[2]; listed as 3HPGD2
  binding of labeled PGD2 to membranes: significant level of binding

## CCCC(=O)O [butyric acid]
HL-60 cells
  effect of butyric acid treatment on PGD2 binding to membranes: significant increase in PGD2 binding; also recorded: acquired the capacity to bind
AML14.3D10 cells
  effect of butyric acid treatment on PGD2 binding to membranes: significant increase in PGD2 binding; also recorded: increased binding of PGD2
